Test results as given in patent publication US20220145249A1, “A Method of Altering a Differentiation Status of a Cell” (Agency for Science, Technology and Research, priority 2019, published 2022).

Key:
Assay type in all cases: cell-based, human
[1] = tested on: iPSC-CRISPR dCas9 SAM cells; assay: minimum inhibitory concentration (MIC) assay for geneticin
Excerpt: The lentiviral vector backbone encodes geneticin as an antibiotic selection marker.

EPO [2] = assay: EPO ELISA of spent medium after endogenous EPO activation; details: iPSC-CRISPR dCas9 SAM cells, spent medium of days 3 and 4 pooled, concentrated with 10 KDa filter, retentate, commercial ELISA
Procedure: FIG. 14 Endogenous activation of erythropoietin (EPO) growth factor in human iPSC-dCas9 SAM cells. (a) qPCR data collected after 4 days of EPO sgRNAs lentivirus (unconcentrated) transduction. (b) EPO ELISA was carried out using two commercially available sources to quantify the CRISPRa EPO. For this, the spent mTesR medium of cells transduced with EPO_g2 were collected on days 3 and 4, the pooled medium was concentrated using Amicon Ultra-15 centrifugal filter (10 KDa cutoff membrane) since the EPO MW is 21 KDa. The retentate was used for quantification using ELISA. According to the standards, the EPO secreted in the medium is in the range of 47-51 IU/mL of EPO.
For this, four different sgRNAs were designed for each of the growth factors/cytokines and constructed lentiviral vectors as mentioned previously (Table 4). For testing the activity of EPO expression, the lentiviruses of four different sgRNAs were produced and screened for the best performing guide in activating EPO expression. The iPSC-CRISPR dCas9 SAM cells were transduced with the unconcentrated lentivirus supernatant of the four sgRNAs individually and tested for their EPO gene expression using qPCR analysis on day 4 cells after transduction. […] Further, the spent media of the cells were collected from two wells of a 12-well plate on days 3 and 4 transduced with EPO_g2 and was stored in −20° C. […]

EPO [3] = assay: qPCR screening of EPO sgRNA lentiviruses; details: day 4 after transduction, unconcentrated lentivirus supernatant
Procedure: cDNA was synthesized from 1 μg of RNA using the Maxima First Strand cDNA Synthesis Kit (ThermoFisher). Quantitative real-time polymerase chain reaction (qPCR) was carried out using QuantStudio 3 Real-Time PCR System (ThermoFisher). The samples were run in biological triplicates and expression levels normalized using the geometric mean of the “housekeeping” gene: glyceraldehyde phosphate dehydrogenase (GAPDH).
For this, four different sgRNAs were designed for each of the growth factors/cytokines and constructed lentiviral vectors as mentioned previously (Table 4). For testing the activity of EPO expression, the lentiviruses of four different sgRNAs were produced and screened for the best performing guide in activating EPO expression. The iPSC-CRISPR dCas9 SAM cells were transduced with the unconcentrated lentivirus supernatant of the four sgRNAs individually and tested for their EPO gene expression using qPCR analysis on day 4 cells after transduction. […] Further, the spent media of the cells were collected from two wells of a 12-well plate on days 3 and 4 transduced with EPO_g2 and was stored in −20° C. Next, an Amicon Ultra-15 centrifugal filter was used with 10KDa cut-off membrane (EPO molecular weight: 21 KDa) to concentrate the EPO protein and the retentate washed with 1× PBS was used for ELISA assay.

| Compound | MIC of geneticin [1] [µg/mL] | EPO secreted in the medium (EPO [2]) | EPO gene expression compared to non-transduced control cells (EPO [3]) |
| --- | --- | --- | --- |
| CN[C@@H]1[C@@H](O)[C@@H](O[C@@H]2[C@@H](O)[C@H](O[C@H]3O[C@H]([C@@H](C)O)[C@@H](O)[C@H](O)[C@H]3N)[C@@H](N)C[C@H]2N)OC[C@]1(C)O [geneticin] | 100 |  |  |
| EPO_g2: sgRNA for EPO, guide sequence TGTGCGTGAGGGGTCGCCAG (listed as DNA, chemistry not given here) |  | 47-51 IU/mL | higher EPO gene expression |
